Values quoted from earlier work in article PMC7504348 (Molecules, 2020).

Test system: AChE
Details: dataset for 2D-QSAR model, Ellman's method, galantamine as reference; cited from earlier work

Point of comparison: Cc1ccc(CN(C(=O)/C=C/C(=O)N(Cc2ccc(C)cc2)c2ccc(I)cc2)c2ccc(I)cc2)cc1 [CHEMBL2296125], “pIC50 (AChE dataset, Table S4)” value 4.46. Against it:
- CN(C)CCc1c[nH]c2ccc(O)cc12 [CHEMBL416526] — higher, 4.94
- O=C(Nc1ccc(F)cc1)Nc1nc(-c2cc3cc([N+](=O)[O-])ccc3o2)cs1 [CHEMBL3617396] — within 0.2 log units, 4.39
- COc1ccc(NC(=O)Nc2nc(-c3cc4cc(Br)ccc4o3)cs2)cc1 [CHEMBL3617380] — within 0.2 log units, 4.49
- O=C(Nc1ccc(Cl)c(Cl)c1)Nc1nc(-c2cc3ccccc3o2)cs1 [CHEMBL3617375] — within 0.2 log units, 4.28
- COc1ccc2c(c1)[nH]c1c(C)nccc12 [CHEMBL269538] — lower, 4.19
- COc1cccc2c1C(=O)c1c(C)cc(=O)[nH]c1C2=O [CHEMBL1269160] — within 0.2 log units, 4.57
- NCCc1c(C(c2c[nH]c3ccccc23)C(O)CO)[nH]c2ccc(O)cc12 (stereo not shown) [CHEMBL3125443] — higher, 4.90
- COc1cc(/C=C/c2ccc(OCCCCCCN(C)Cc3ccccc3)cc2)cc(OC)c1 [CHEMBL3132866] — higher, 4.98
- c1ccc(CNc2ccccc2)cc1 [CHEMBL237223] — within 0.2 log units, 4.59
- O=C(Nc1nc(-c2cc3ccccc3o2)cs1)Nc1ccccc1[N+](=O)[O-] [CHEMBL3617367] — within 0.2 log units, 4.38
- O=C(Nc1ccc(F)cc1)Nc1nc(-c2cc3ccccc3o2)cs1 [CHEMBL3617372] — lower, 4.26
- COc1ccc(C2NC(=O)NC(CCc3ccc(O)c(OC)c3)=C2C(=O)CCc2ccc(O)c(OC)c2)cc1 (stereo not shown) [CHEMBL2381434] — higher, 4.67
- CO/N=C\c1ccc(O[C@@H]2O[C@H](COC(C)=O)[C@@H](OC(C)=O)[C@H](OC(C)=O)[C@H]2OC(C)=O)cc1 [CHEMBL463856] — within 0.2 log units, 4.33
- O=C(Nc1ccc(Cl)cc1)Nc1nc(-c2cc3cc([N+](=O)[O-])ccc3o2)cs1 [CHEMBL3617397] — within 0.2 log units, 4.52
- O=C(O[C@H]1[C@H](Oc2ccc(/C=N/O)cc2)OC[C@@H](OC(=O)c2ccccc2)[C@H]1OC(=O)c1ccccc1)c1ccccc1 [CHEMBL500712] — within 0.2 log units, 4.40
- O=C1NC2=C(CNC/C2=C\c2ccc(F)cc2)C(c2ccc(F)cc2)N1 (stereo not shown) [CHEMBL2385771] — within 0.2 log units, 4.30
- O=C1NC2=C(CNC/C2=C\c2ccc(Br)cc2)C(c2ccc(Br)cc2)N1 (stereo not shown) [CHEMBL2385768] — higher, 4.75
- COc1ccccc1NC(=O)Nc1nc(-c2cc3ccccc3o2)cs1 [CHEMBL3617362] — lower, 4.22
- O=C1NC2=C(CNC/C2=C\c2cccc3ccccc23)C(c2cccc3ccccc23)N1 (stereo not shown) [CHEMBL2385773] — higher, 4.83
- CCC[C@H](NC(=O)OCC)C(=O)N[C@H](C)c1nc2ccc(F)cc2s1 [CHEMBL2334730] — within 0.2 log units, 4.64
- Cc1ccc(NC(=O)Nc2nc(-c3cc4cc(Br)ccc4o3)cs2)cc1 [CHEMBL3617381] — within 0.2 log units, 4.49
- CC(C)NCc1cccc2[nH]c3cc(O)ccc3c12 [CHEMBL3127219] — higher, 4.92
- CCCN(CCC)CCCCCCOc1ccc(/C=C/c2cc(OC)cc(OC)c2)cc1 [CHEMBL3133243] — higher, 4.97
- CCC[C@H](NC(=O)OCC(F)(F)F)C(=O)N[C@H](C)c1nc2ccc(F)cc2s1 [CHEMBL2334737] — higher, 4.71
- COc1ccc(NC(=O)Nc2nc(-c3cc4cc([N+](=O)[O-])ccc4o3)cs2)cc1 [CHEMBL3617393] — within 0.2 log units, 4.47
- CC(C)COC(=O)N[C@H](C(=O)N[C@H](C)c1nc2ccc(F)cc2s1)C(C)C [CHEMBL2334745] — within 0.2 log units, 4.49
- COc1cc2ccnc3c2c(c1OC)-c1ccccc1C3=O [CHEMBL510090] — higher, 4.72
- COc1cc(CCC(=O)C2=C(CCc3ccc(O)c(OC)c3)NC(=O)NC2c2ccc(O)cc2)ccc1O (stereo not shown) [CHEMBL2381433] — within 0.2 log units, 4.58
- COc1cc(/C=C/c2ccc(OCCCCCCN3CCOCC3)cc2)cc(OC)c1 [CHEMBL3133248] — higher, 4.66
- OC[C@H]1O[C@@H](Oc2ccc(/C=N/O)cc2)[C@H](O)[C@@H](O)[C@@H]1O [CHEMBL457684] — higher, 4.78
- O=[N+]([O-])c1cccc(/C=C2\CNCC3=C2NC(=S)NC3c2cccc([N+](=O)[O-])c2)c1 (stereo not shown) [CHEMBL2385779] — within 0.2 log units, 4.42
- CCOC(=O)c1c(C)nc2nc3c(c(N)c2c1-c1ccccc1)CCCC3 [CHEMBL253386] — higher, 5.49
- CCN(CC)Cc1cccc2[nH]c3cc(OC)ccc3c12 [CHEMBL3127217] — higher, 4.99
- CCN(CC)Cc1ccc(OCCCCCCCCCCN2CCCCC2)cc1 [CHEMBL1085869] — higher, 5.67
- COc1cc2c(cc1O)C[N@+]1(C)CCc3cc(OC)c(OC)cc3[C@@H]1C2 [CHEMBL1270255] — higher, 5.01
- COC(=O)[C@@H]1CCCN1CCCCCOc1ccc2c(=O)cc(-c3ccccc3)oc2c1C [CHEMBL2393074] — higher, 4.75
- COc1cc(/C=C/c2ccc(OCCCCCCN3CCCCC3C)cc2)cc(OC)c1 (stereo not shown) [CHEMBL3133246] — higher, 5.45
- CCc1ccc(N(Cc2ccc(C)cc2)C(=O)/C=C/C(=O)N(Cc2ccc(C)cc2)c2ccc(CC)cc2)cc1 [CHEMBL2296112] — lower, 4.25
- CCC[C@H](NC(=O)OC(C)C)C(=O)N[C@H](C)c1nc2ccc(F)cc2s1 [CHEMBL2334732] — higher, 4.86
- CC(C)[C@H](NC(=O)OCC(F)(F)C(F)(F)C(F)(F)F)C(=O)N[C@H](C)c1nc2ccc(F)cc2s1 [CHEMBL2334728] — lower, 4.24
- O=C(Nc1ccc(F)cc1)Nc1nc(-c2cc3cc(Br)ccc3o2)cs1 [CHEMBL3617388] — within 0.2 log units, 4.45
- O=C1NC2=C(CNC/C2=C\c2ccc(Cl)cc2Cl)C(c2ccc(Cl)cc2Cl)N1 (stereo not shown) [CHEMBL2385772] — within 0.2 log units, 4.48
- Cc1ccc(CN(C(=O)/C=C/C(=O)N(Cc2ccc(C)cc2)c2ccc(F)cc2)c2ccc(F)cc2)cc1 [CHEMBL2296124] — within 0.2 log units, 4.33
- O=C(Nc1ccccc1)Nc1nc(-c2cc3cc(Br)ccc3o2)cs1 [CHEMBL3617382] — within 0.2 log units, 4.63
- CC(C)[C@H](NC(=O)OCC(F)(F)F)C(=O)N[C@H](C)c1nc2ccc(F)cc2s1 [CHEMBL2334726] — within 0.2 log units, 4.49
- CC(C)[C@H](NC(=O)OCC(Cl)(Cl)Cl)C(=O)N[C@H](C)c1nc2ccc(F)cc2s1 [CHEMBL2334725] — higher, 4.70
- CC(C)[C@H](NC(=O)OCCBr)C(=O)N[C@H](C)c1nc2ccc(F)cc2s1 [CHEMBL2334747] — within 0.2 log units, 4.51
- Fc1ccccc1/C=C1\CNCC2=C1NC(=S)NC2c1ccccc1F (stereo not shown) [CHEMBL2385777] — within 0.2 log units, 4.34
- CCC[C@H](NC(=O)OCC(Cl)(Cl)Cl)C(=O)N[C@H](C)c1nc2ccc(F)cc2s1 [CHEMBL2334736] — higher, 4.72
- S=C1NC2=C(CNC/C2=C\c2ccc(Br)cc2)C(c2ccc(Br)cc2)N1 (stereo not shown) [CHEMBL2385780] — higher, 4.88
- CC1=NCCc2c1[nH]c1cc(O)ccc21 [CHEMBL129177] — within 0.2 log units, 4.47
- CCOc1ccc(N(Cc2ccccc2)C(=O)/C=C/C(=O)N(Cc2ccccc2)c2ccc(OCC)cc2)cc1 [CHEMBL2296117] — lower, 4.18
- COc1ccccc1/C=C1\CNCC2=C1NC(=O)NC2c1ccccc1OC (stereo not shown) [CHEMBL2385766] — within 0.2 log units, 4.35
- CCN(CC)Cc1cccc2oc3cc(OC)ccc3c12 [CHEMBL3127043] — higher, 4.98
- COc1cc(/C=C/c2ccc(OCCCN(C)Cc3ccccc3)cc2)cc(OC)c1 [CHEMBL3133250] — within 0.2 log units, 4.29
- CC(=O)OC[C@H]1O[C@@H](Oc2ccc(/C=N/NC(N)=S)cc2)[C@H](OC(C)=O)[C@@H](OC(C)=O)[C@@H]1OC(C)=O [CHEMBL517342] — lower, 4.19
- CCC[C@H](NC(=O)OCC(F)(F)C(F)F)C(=O)N[C@H](C)c1nc2ccc(F)cc2s1 [CHEMBL2334738] — higher, 4.69
- Cc1nccc2c1[nH]c1ccccc12 [CHEMBL12014] — lower, 4.23
- CCc1ccc(N(Cc2ccccc2)C(=O)/C=C/C(=O)N(Cc2ccccc2)c2ccc(CC)cc2)cc1 [CHEMBL2296113] — lower, 4.21
- COc1ccc2c3c([nH]c2c1)C(C)=NCC3 [CHEMBL340807] — higher, 4.80
- COc1cc(/C=C/c2ccc(OCCCCCCN3CCC(O)CC3)cc2)cc(OC)c1 [CHEMBL3133247] — higher, 4.81
- S=C1NC2=C(CNC/C2=C\c2ccc(Cl)cc2Cl)C(c2ccc(Cl)cc2Cl)N1 (stereo not shown) [CHEMBL2385784] — within 0.2 log units, 4.53
- COc1ccc2c(c1)[nH]c1cccc(CNC(C)C)c12 [CHEMBL3127216] — higher, 4.84
- COc1cc(/C=C/c2ccc(OCCCCCCN3CCCCC3)cc2)cc(OC)c1 [CHEMBL3133245] — higher, 5.36
- O=C(Nc1nc(-c2cc3ccccc3o2)cs1)Nc1ccccc1F [CHEMBL3617370] — within 0.2 log units, 4.51
- COc1ccc2c(ccc[n+]2C)c1.[I-] [CHEMBL2018160] — within 0.2 log units, 4.63
- CCC[C@H](NC(=O)OCC(F)(F)C(F)(F)C(F)(F)F)C(=O)N[C@H](C)c1nc2ccc(F)cc2s1 [CHEMBL2334739] — within 0.2 log units, 4.52
- COc1cc2c(cc1O)C=[N+](C)CC2.O=C([O-])C(F)(F)F [CHEMBL1270150] — higher, 4.73
- CC(C)[C@H](NC(=O)OCC(F)(F)C(F)F)C(=O)N[C@H](C)c1nc2ccc(F)cc2s1 [CHEMBL2334727] — higher, 4.72
